From paper PMC12326382, “Discovery of a novel RSK2 inhibitor for the treatment of metastatic pancreatic cancer” (Journal of Enzyme Inhibition and Medicinal Chemistry, 2025)

Target: T1, RSK2 (Homo sapiens, UniProt P51812)
T1 construct: gene RPS6KA3
Assay: FRET kinase assay (Thermo Fisher LanthaScreen / Z'-LYTE)
Assay type: biochemical

T1 sequence (P51812 whole entry): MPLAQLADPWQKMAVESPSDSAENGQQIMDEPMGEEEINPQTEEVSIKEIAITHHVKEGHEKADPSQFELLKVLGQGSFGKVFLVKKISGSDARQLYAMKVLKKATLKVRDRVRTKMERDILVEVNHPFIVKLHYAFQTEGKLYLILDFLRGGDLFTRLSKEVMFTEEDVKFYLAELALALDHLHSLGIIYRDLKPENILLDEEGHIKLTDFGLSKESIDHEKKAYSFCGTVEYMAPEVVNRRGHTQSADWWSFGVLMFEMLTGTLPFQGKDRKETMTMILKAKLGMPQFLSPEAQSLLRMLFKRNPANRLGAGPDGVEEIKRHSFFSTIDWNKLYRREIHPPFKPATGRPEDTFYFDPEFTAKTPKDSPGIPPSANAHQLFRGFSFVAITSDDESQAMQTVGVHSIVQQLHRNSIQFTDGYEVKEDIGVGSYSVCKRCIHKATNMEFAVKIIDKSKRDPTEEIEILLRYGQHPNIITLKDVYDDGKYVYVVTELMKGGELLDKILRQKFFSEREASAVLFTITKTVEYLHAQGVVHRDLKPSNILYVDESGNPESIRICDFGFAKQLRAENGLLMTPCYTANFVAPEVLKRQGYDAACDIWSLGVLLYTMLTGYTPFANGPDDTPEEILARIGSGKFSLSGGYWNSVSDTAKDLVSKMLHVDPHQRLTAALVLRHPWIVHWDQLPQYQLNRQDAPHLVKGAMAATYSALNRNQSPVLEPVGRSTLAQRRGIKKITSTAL

How did the IC50 turn out when `Cc1ccc2[nH]c(=O)c(-c3cnc(=O)[nH]n3)c(O)c2c1` [NSYSU-115] was run?
Its IC50 is 45.5 nM.
